Laboratory results as given in patent US20030133918A1, “Methods for ex vivo propagation of somatic stem cells” (priority 2001, published 2003).

Tests used:
Xs-D lines = assay: Albumin induction in adherent culture under conditions of quiescence; format: cell-based, rat; conditions: added to standard quiescence-induction protocol (confluency, 1% serum)
Source text: In vivo, cell differentiation in somatic tissues has two important cell kinetics features. First, it occurs after a fixed number of cell divisions from the stem cell stage; and second, cells undergo a cell kinetics arrest before terminal differentiation occurs (Potten and Morris, 1988). Ideally, we wanted to mimic this process in culture with cells dividing with asymmetric stem cell kinetics. However, there was concern whether in vitro asymmetric divisions would be in appropriate balance with non-dividing cells. So, we decided to augment the growth arrest by growing cells to confluency in either Xs-free or Xs-containing medium and then inducing a total quiescent state by reducing the serum concentration to 1%. Many in vitro cell models have been described that undergo differentiation upon serum reduction.
The most dramatic differentiation result obtained in the adherent culture studies was the induction of albumin expression in Xs-D lines under conditions of quiescence (See example in FIG. 4). […] Three other treatments were added to the standard quiescence-induction protocol to evaluate their effect on albumin induction. These were DMSO to mimic glucocorticoid effects, growth on collagen as a form of extracellular matrix, and glucose-removal as noted above for its differentiation effects on gastrointestinal cell lines. […]

[1] = system: freshly harvested murine bone marrow cells; assay: Bone marrow colony formation in soft agar (fresh bone marrow); format: cell-based; conditions: fresh bone marrow cells; type I, II, III colonies
Protocol: The following numbers of freshly harvested murine bone marrow cells were plated in soft agar in replicates of 6 in 6-well plates: 1×10^5, 5×10^5, or 1×10^6. After 1-3 weeks, type I, II, and III colonies (see FIG. 2 for examples) were enumerated by phase microscopy.
Because of the difficulties anticipated in cloning Xs-dependent cells from heterogenous long-term bone marrow cultures, we decided to adopt a soft agar culture strategy. It is well known that hematopoietic progenitor cells will form colonies when grown in semi-solid medium (Dexter et al., 1984). […] In many bone marrow cell studies, conditions are selected to induce bone marrow cell differentiation. Methyl-cellulose or soft agar supplemented with lineage-promoting growth factors are widely used experimental systems (Dexter et al., 1984). For ideal SACK, we wished to minimize stimuli for differentiation. Therefore, we used agar developed in routine horse serum-supplemented long-term culture medium, without any additional growth factor source, as the gel medium for our studies. We followed procedures developed for detecting anchorage-independent growth of transformed tumor cells.
Given their associated HSC activity, LT-CFCs are predicted to divide with asymmetric cell kinetics. We evaluated whether Xs would increase the frequency of LT-CFC type I colonies in soft agar. Freshly prepared bone marrow cells were plated in soft agar developed in either control medium or medium containing 1 mM or 3 mM Xs.

[2] = system: p53-inducible model cells; conditions: published studies (Sherley, 1991); cited from earlier work

SMILES | Effect on degree/induction of albumin expression (Xs-D lines) | Effect on frequency of colony types in soft agar [1] | Effectiveness as SACK agent compared with Xs [2]
C[S+](C)[O-] [DMSO] | no noticeable effect | – | –
O=c1[nH]cnc2nc[nH]c12 [Hx, hypoxanthine] | – | increased the frequency of type II and III colonies at the expense of type I colonies | not as effective a SACK agent as Xs
